Results taken from patent US20090156825A1, “Fluorescent compounds that bind to histone deacetylase” (priority 2007, published 2009).
“Also recorded” adds a separate entry of the source.

Target: T1, HDAC1 (Homo sapiens, UniProt Q13547)
T1 construct: Flag
Assay: Fluorescence polarization Kd determination of FITC-labeled compounds by HDAC1 titration
Format: binding
Conditions: for time for binding to come to equilibrium: FP read over time after adding the FITC-labeled compound to HDAC1; for binding mechanism (exponential fit of Kd app versus time): replot of Kd app values vs. time, 1-phase or 2-phase exponential fit
Method: Titrations of HDAC1 were set up in 96-well black, flat-bottom plates. The concentrations of HDAC1 varied from 5 to 200 nM (with COMPOUND 1 and COMPOUND 2) or 20 to 450 nM (with COMPOUND 3). At time zero, the FITC-labeled compound was added and the plate inserted into the Analyst HT for FP detection. The samples were read every 5 seconds through ˜10 minutes (COMPOUND 1) or 2 hours (COMPOUND 2 and COMPOUND 3). The data at each time point was converted from mP to […] and plotted in Prism using an equation for ligand binding taking ligand-depletion into consideration (Equations 1-3) (An example of which is given in FIG. 1A).
where Lt is total fluorescently-labeled compound concentration, Rt is total HDAC concentration, Kd is the dissociation constant for the ligand to HDAC, Ab is the anisotropy when 100% of the ligand is bound, and Af is the anisotropy when 100% of the ligand is free. The values determined by the data as plotted in Figure A are Kd^app, Ab, and Af.
After determining the Kd^app for each time point, the Kd^app was replotted versus time (FIG. 1B) to determine true steady-state Kd. […] The plateau value of this exponential decay defines the steady-state Kd value.

T1 sequence (Q13547 whole entry): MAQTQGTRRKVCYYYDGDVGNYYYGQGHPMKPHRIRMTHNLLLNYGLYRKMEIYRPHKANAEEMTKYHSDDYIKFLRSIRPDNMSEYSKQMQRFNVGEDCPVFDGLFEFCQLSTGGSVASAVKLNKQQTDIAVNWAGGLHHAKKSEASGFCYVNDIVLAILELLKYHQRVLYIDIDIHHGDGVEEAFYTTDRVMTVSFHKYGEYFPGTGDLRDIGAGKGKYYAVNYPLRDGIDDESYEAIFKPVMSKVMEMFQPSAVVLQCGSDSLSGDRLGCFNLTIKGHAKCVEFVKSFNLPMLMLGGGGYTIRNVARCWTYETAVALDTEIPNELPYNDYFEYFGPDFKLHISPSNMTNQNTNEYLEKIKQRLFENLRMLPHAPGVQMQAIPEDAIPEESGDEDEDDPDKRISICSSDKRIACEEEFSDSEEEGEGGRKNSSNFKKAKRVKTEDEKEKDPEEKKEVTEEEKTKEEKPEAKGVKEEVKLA

| Kd (plateau of Kd app replotted versus time, HDAC1 5 to 200 nM, FP detection, read-out: true steady-state Kd) [nM] | SMILES | time for binding to come to equilibrium | binding mechanism (exponential fit of Kd app versus time) | binding mechanism (exponential fit of Kd app versus time) (listed as FITC-SAHA) |
| --- | --- | --- | --- | --- |
| 16 | O=C(CCCCCCC(=O)Nc1ccc(CNC(=S)Nc2ccc(-c3c4ccc(=O)cc-4oc4cc(O)ccc34)c(C(=O)O)c2)cc1)NO [COMPOUND 1, 5-({[(4-{[8-(hydroxyamino)-8-oxooctanoyl]amino}benzyl)amino]carbonothioyl}amino)-2-(6-hydroxy-3-oxo-3H-xanthen-9-yl)benzoic acid] | faster than could be measured by the instrument used | classical 1-step binding mechanism | fits 1-phase exponential curve quite well |
| – | Nc1ccc(-c2ccccc2)cc1NC(=O)c1ccc(CNC(=O)OCc2ccc(CNC(=S)Nc3ccc(-c4c5ccc(=O)cc-5oc5cc(O)ccc45)c(C(=O)O)c3)cc2)cc1 [COMPOUND 2, 5-{[({4-[({[(4-{[(4-aminobiphenyl-3-yl)amino]carbonyl}benzyl)amino]carbonyl}oxy)methyl]benzyl}amino)carbonothioyl]amino}-2-(6-hydroxy-3-oxo-3H-xanthen-9-yl)benzoic acid] | 210 min | requires a 2-phase exponential curve; also recorded: bound slowly with an induced-fit mechanism | – |
